Laboratory results published in patent publication US12187767B2 (priority 2021, dated 2025).
Entries after “also recorded” stand apart in the source; their conditions may differ. Read-outs that look alike come from different tables or passages of the source. Ends that are not written are not given here.

Columns and labels:
MDA-MB-231 cells [1] = assay: Western blot analysis of EV protein content; format: cell-based; conditions: 48 hours treatment
Protocol: (§1) 1.3. EV isolation and purification. EVs were isolated from cells by differential centrifugation as previously described (Ali SA. et al., 2010). Untreated cells were used as a control. Briefly, the above treated and untreated cell culture supernatants were centrifuged at 400×g for 10 minutes. The supernatants were transferred to a clear tube and centrifuged at 10,000×g for 30 minutes. The supernatants from the second spin were […] ultracentrifuged at 200,000×g for 2 hours to pellet the EVs. Finally, the EV pellets were re-suspended with PBS and stored at 4° C. until used for analysis.
(§2) 1.6. Western blot analysis. EVs were isolated from culture supernatants as described above. Protein concentrations were determined by measuring absorbance at 280 nm (Nanodrop 2000). Protein samples were denatured in SDS-PAGE sample buffer by heating at 95° C. for 15 min. Criterion TGX Precast Gels (4-20% Bio-Rad, Richmond, CA) were used to separate the proteins and blotted as previously described (Huang MB. et al 2004). Blots were incubated with the primary antibodies, anti-CD63 and anti-Alix, followed by goat or rabbit anti-Ig secondary antibodies. Specific bands were detected using ECL chemiluminescent substrate (Santa Cruz Biotechnology, Santa Cruz, CA) and visualized on the ImageQuant LAS 4000 imaging system (GE Healthcare, Piscataway, NJ 08854).
(§3) Western blot analysis was used to examine the effects of the SMRwt peptides, PEG-SMRwt-Clu peptide and SMRwt-CPP peptide, and the mortalin inhibitors MKT-077, Omeprazole, and DMA on EV protein content in MCF-7, MDA-MB-231 and K562 cells. Negative control treatments included the PEG-SMRmut-Clu peptide, […] (SEQ ID NO: 49) and the SMRmut-CPP peptide, […] (SEQ ID NO: 50). EVs were isolated from all treated and untreated cell lines screened. Western blot analyses were carried out to evaluate the expression levels of the exosomal proteins, Alix, mortalin, and vimentin in MCF-7 cells (FIG. 7, Panel A, left sub-panel), MDA-MB-231 cells (FIG. 7, Panel A, middle sub-panel), and K562 cells (FIG. 7, Panel A, right sub-panel).

MCF-7 cells [2] = assay: Western blot analysis of EV protein content; format: cell-based; conditions: 48 hours treatment; for Alix expression in EVs / Vimentin expression in EVs: relative to negative controls
Protocol: as §1, §2, §3

K562 cells [3] = assay: Western blot analysis of EV protein content; format: cell-based; conditions: 48 hours treatment
Protocol: as §1, §2, §3

[4] = system: MCF-7, MDA-MB-231 and K562 cells; conditions: previously shown (Huang et al., Oncotarget (2017)); cited from earlier work
[5] = system: K562, MCF-7 and MDA-MB-231 cultures; assay: Complement-mediated cytotoxicity, overall statements across cell lines; format: cell-based; conditions: peptide, then anti-CXCR4 antibody and NHS
Protocol: (§4) Therefore, it was of interest to see whether SMR peptide driven mortalin sequestration and functional disruption increases cell sensitivity to complement-induced cell death. Accordingly, MCF-7, MDA-MB-231, and K562 cells were treated with 280 nM PEG-SMRwt-Clu peptide or 560 nM SMRwt-CPP peptide alone for 60 min at 37° C., followed by treatment with 1 μg/mL anti-CXCR4 antibody and 50 μL normal human serum (NHS; as a source of complement) or normal heat-inactivated (human) serum (NIS) for an additional 60 min at 37° C. (FIG. 8). PEG-SMRmut-Clu peptide and SMRmut-CPP peptide were used as negative controls. The percentage of stained (dead) cells was determined by trypan blue exclusion and is representative of 3 independent experiments.
(§5) To further validate the ability of mortalin neutralization to render or enhance complement-mediated cytotoxicity, MCF-7, MDA-MB-231 and K562 cells were transfected with vectors expressing mortalin siRNAs or negative control siRNAs, incubated for 72 hours at 37° C., treated with anti-CXCR4 antibody for 30 minutes at 4° C. followed by incubation with either NHS or NIS for 60 minutes at 37° C.

MDA-MB-231 cells [6] = assay: Acetylcholinesterase (AchE) assay of exosome/EV release; format: cell-based; conditions: for average AChE concentration levels throughout day 1 to 5: MDA-MB-231 cells, five-day treatment at 37° C.
Protocol: as §1
(§6) 1.4. Exosome characterization by acetylcholinesterase (AchE) assay. Purified EVs were quantitated by measurement of AchE as described (Ellman et al., 1961). Briefly, a 100 mM dithibionitrobenzoic (DTNB) solution was prepared for use as a stock color indicator, and a 28.9 mg/mL acetylthiocholine iodide in PBS solution was prepared as a stock substrate. The stock substrate stock can be stored at −20° C. up to one month, while the color indicator can be stored at 4° C. for two weeks. A working solution was prepared by mixing 10 mL of PBS with 200 μL of Substrate and 500 μl of DTNB. 50 μL of each exosome sample was transferred to 96 well microtitre plates, and a standard curve was prepared using AchE from 0.98 mU/mL to 2000 mU/mL. After 50 μL of standards were added into separate wells, 200 μL of the working solution was added to all wells. After 20 min incubation, AchE activity was measured at 450 nm using a SpectroMax M5 fluorimeter.

MCF-7 cells [7] = assay: as above; format: cell-based; conditions: for average AChE concentrations throughout days 1 to day 5: MCF-7 cells, five-day treatment at 37° C.
Protocol: as §1, §6

MDA-MB-231 cells [8] = assay: NanoSight nanoparticle tracking analysis (NTA) of released EVs; format: cell-based; conditions: MDA-MB-231 cells treated for 48 hr; control media 4.7×10^9 particles/ml
Protocol: as §1
(§7) 1.5. EV nanoparticle tracking analysis (NTA). Analysis of absolute size distribution of EVs was performed using NanoSight LM10 with NTA2.3 (NanoSight Ltd., Minton Park, UK). EV particles were automatically tracked and sized based on Brownian motion and the diffusion coefficient. After isolation, the untreated and treated EVs were re-suspended in 0.5 mL of PBS. Control medium and filtered PBS were used as controls in this technique. The NTA measurement conditions were: temperature=21.0+/−0.5° C.; viscosity=0.99+/−0.01 cP; frames per second=25; measurement time=30 s. The detection threshold was similar in all samples. […]

MCF-7 cells [9] = assay: as above; format: cell-based; conditions: MCF-7 cells treated for 48 hr; untreated control 5.16×10^9 particles/ml
Protocol: as §1, §7

MDA-MB-231 cells [10] = assay: Complement-mediated cytotoxicity (anti-CXCR4 antibody plus NHS or NIS, trypan blue exclusion); format: cell-based; conditions: 280 nM PEG-SMRwt-Clu or 560 nM SMRwt-CPP
Protocol: as §4, §5

MCF-7 cells [11] = assay: as above; format: cell-based; conditions: 280 nM PEG-SMRwt-Clu or 560 nM SMRwt-CPP
Protocol: as §4, §5

K562 cells [12] = assay: as above; format: cell-based; conditions: 280 nM PEG-SMRwt-Clu or 560 nM SMRwt-CPP
Protocol: as §4, §5

[13] = system: MCF-7, MDA-MB-231 and K562 cells; assay: Exosome/EV release, overall statements across cell lines (AchE, NanoSight, Western blot); format: cell-based; conditions: for exosome/EV release (number of EVs released): MCF-7, MDA-MB-231 and K562 cells, five days at 37° C., AchE assay
Protocol: Acetylcholinesterase (AchE) assays, NanoSight analysis and Western blot analysis were performed to characterize EVs released from MCF-7 and MDA-MB-231 cells treated for 48 hr with the various peptides.
To further examine the underlying mechanism for blocking exosome release, a study was extended to examine the effects of the SMRwt peptides, PEG-SMRwt-Clu peptide and SMRwt-CPP peptide, and the mortalin inhibitors MKT-077, Omeprazole, and DMA on exosome release. In particular, acetylcholinesterase (AchE) assays, NanoSight analysis and Western blot analysis were performed to characterize EVs released from MCF-7, MDA-MB-231 and K562 cells. Panels A, B and C depict the relative numbers of EVs released as a function of time as measured by an acetylcholinesterase (AchE) assay in MCF-7 cells (FIG. 6, Panel A); MDA-MB-231 cells (FIG. 6, Panel B); and K562 cells (FIG. 6, Panel C).

[14] = then anti-CXCR4 antibody and NHS

Row | Compound | Mortalin expression in EVs (MDA-MB-231 cells [1]) | Vimentin expression in EVs (MDA-MB-231 cells [1]) | Mortalin expression in EVs (MCF-7 cells [2]) | Alix expression in EVs (MCF-7 cells [2]) | Vimentin expression in EVs (MCF-7 cells [2]) | Alix expression in EVs (K562 cells [3]) | Mortalin expression in EVs (K562 cells [3]) | complement-mediated cytotoxicity / cell death in the presence of NHS [5] | average AChE concentration levels throughout day 1 to 5 (MDA-MB-231 cells [6]) | average AChE concentrations throughout days 1 to day 5 (MCF-7 cells [7]) | exosome/EV release (number of EVs released) [13] | further results
1 | VGFPVAAVGFPVHPLSKHPYWSQP (SEQ ID NO: 47) [PEG-SMRwt-Clu] | significantly decreased | significantly decreased | significantly decreased | significantly decreased | significantly decreased | significantly decreased | significantly decreased | induce complement-mediated cytotoxicity | 42 mU/mL | 31 mU/mL | reduced the number of EVs released; also recorded: blocked exosome release | Alix expression in EVs (MDA-MB-231 cells [1]): significantly decreased; exosome release [4]: block exosome release; AchE activity in EVs (MDA-MB-231 cells [6]; MDA-MB-231 cells treated for 48 hr, control EVs 118.48 mU/mL): 66.77 mU/mL; AchE activity in EVs (MCF-7 cells [7]; MCF-7 cells treated for 48 hr, control EVs 113.49 mU/mL): 41.95 mU/mL; number of particles (NTA) (MDA-MB-231 cells [8]): 6.8×10^8 particles/mL; number of particles (NTA) (MCF-7 cells [9]): 3.28×10^8 particles/mL; cell death under complement-negative conditions (MDA-MB-231 cells [10]; 60 min): 3.6%; cell death under complement-positive conditions (MDA-MB-231 cells [10]; [14]): 76%; cell death under complement-negative conditions (MCF-7 cells [11]; 60 min): 2.1%; cell death under complement-positive conditions (MCF-7 cells [11]; [14]): 26%; cell death under complement-negative conditions (K562 cells [12]; 60 min): 4.3%; cell death under complement-positive conditions (K562 cells [12]; [14]): 55%; exosome release ([13]; MCF-7 and MDA-MB-231 cells treated for 48 hr): blocks exosome release
2 | VGFPVAAVGFPVGRKKRRQRRRPPQ [SMRwt-CPP] |  |  |  |  |  |  |  | induce complement-mediated cytotoxicity |  |  |  | 
3 | CCn1c(=Cc2cccc[n+]2CC)sc(=C2Sc3ccccc3N2C)c1=O.[Cl-] [MKT-077, 1-Ethyl-2-[[3-ethyl-5-(3-methyl-2(3H)-benzothiazolylidene)-4-oxo-2-thiazolidinylidene]methyl]-pyridinium chloride] | No significant change | no significant change | significantly decreased | significantly decreased | significantly decreased | significantly decreased | significantly decreased |  | 29 mU/mL | 22 mU/mL | reduced the number of EVs released; also recorded: blocked exosome release | Vimentin expression in EVs (K562 cells [3]): significantly increased
